target: T1, human neuropeptide Y5 receptor (Homo sapiens, UniProt Q15761); experiment: NPY5 HTS centrifugation assay: competition with 125I-PYY for binding to membranes of NPY5-transfected HEK-293 cells; details: 3 μM compound; % inhibition of 125I-PYY binding
T1 construct: expressed in transfected cells; host or cells: HEK-293 (human embryonic kidney cells), stably transfected, G-418 selected; membranes
T1 sequence (Q15761 1-445): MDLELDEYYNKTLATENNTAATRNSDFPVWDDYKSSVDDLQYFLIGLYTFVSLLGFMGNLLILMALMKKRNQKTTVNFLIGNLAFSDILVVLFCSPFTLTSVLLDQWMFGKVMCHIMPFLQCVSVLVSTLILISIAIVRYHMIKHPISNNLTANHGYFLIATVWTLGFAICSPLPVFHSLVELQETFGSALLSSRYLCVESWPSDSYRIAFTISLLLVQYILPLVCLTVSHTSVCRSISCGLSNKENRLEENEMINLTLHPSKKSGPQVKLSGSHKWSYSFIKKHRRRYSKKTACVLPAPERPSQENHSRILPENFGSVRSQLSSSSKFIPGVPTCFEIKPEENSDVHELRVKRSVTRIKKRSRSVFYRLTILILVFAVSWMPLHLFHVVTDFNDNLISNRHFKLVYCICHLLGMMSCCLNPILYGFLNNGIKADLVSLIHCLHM
Procedure: The compounds described in this invention were evaluated for binding to the human neuropeptide Y5 receptor.
The human NPY5 receptor cDNA (Genbank Accession number U66275) was inserted into the vector pClneo (Invitrogen) and transfected into human embryonic kidney cells (HEK-293) via Calcium phosphate method (Cullen 1987). Stably transfected cells were selected with G-418 (600 ug/mL). Stably transfected cells served as the source for the membranes for the NPY5 receptor binding assay.
PY5-transfected HEK293 cells were grown to confluence in 150 cm^2 culture dishes. Cells were washed once with phosphate-buffered saline (Gibco Cat# 14040-133). Cells were then incubated in phosphate-buffered saline without Calcium and without Magnesium, supplemented with 2 mM EDTA. Cells were incubated for 10 minutes at room temperature and the cells were collected by repetitive pipeting. Cells were formed into pellets and then frozen at −80 until needed. Frozen pellets were homogenized with a polytron at full speed for 12 seconds in a homogenization buffer (20 mM Tris HCl, 5 mM EDTA, pH 7.4). Homogenates were centrifuged for 5 minutes at 4C at 200 g. Supernatants were transferred to corex tubes and centrifuged for 25 minutes at 28,000 g. Pellets were re-suspended in Binding (20 mM HEPES, 10 mM NaCl, 0.22 mM KH2PO4, 1.3 mM CaCl2, 0.8 mM MgSO4, pH 7.4). Membranes were kept on ice until use.
A competition binding assay, known to those skilled in the art, was used in which the compounds of formula (I) compete with ^125I-PYY for binding to cell membranes. […] Bound ^125I-PYY was determined by centrifugation of membranes, aspirating supernatant, washing away residual ^125I-PYY and subsequently counting the bound sample in a g-counter.
Compounds to be tested were prepared as 10× stocks in binding buffer and added first to assay tubes (RIA vials, Sarstedt). […] To each tube was added 100 μL of membranes and the mixture was agitated by pipeting 2 times. Samples were incubated for 1 hr at room temperature. Aluminum cast plates (Sarstedt) containing the vials were then centrifuged 10 minutes at 3200 rpm in a Sorvall RT6000. Supernatant was then aspirated. To each vial 400 μL PBS was added and this was then aspirated again. Vials were then put in carrier polypropylene 12×75 tube and counted in gamma counter (Packard). Non-specific binding was determined in the presence of 300 nM NPY. Percent inhibition of ^125I -PYY binding was calculated by subtracting non-specific binding from the test samples (compound (I)), taking these counts and dividing by total binding, and multiplying by 100. […] These operations are known to those skilled in the art.

In order of rising “% Inh NPY5r 3 μM” value:
1. Cc1cc(C(=O)Nc2ccc(F)cc2)nn1-c1ccccn1 [Compound 114]  0%
2. Cc1cc(C(=O)Nc2cc(Cl)cc(Cl)c2)nn1-c1ccccn1 [Compound 115]  0%
3. Cc1cc(C(=O)Nc2ccccc2-n2cccc2)nn1-c1ccccn1 [Compound 116]  5%
4. Cc1cc(C(=O)Nc2cc(Cl)cc(Cl)c2)nn1-c1cccc(Cl)c1 [Compound 130]  7%
5. Cc1cc(C(=O)Nc2ccc(F)cc2)nn1-c1cc(C(F)(F)F)ccc1Cl [Compound 143]  15%
6. Cc1cc(C(=O)Nc2ccccc2Nc2ccccc2)nn1-c1ccccn1 [Compound 117]  18%
7. Cc1cc(C(=O)Nc2ccccc2)nn1-c1cc(C(F)(F)F)ccc1Cl [Compound 144]  20%
8. Cc1cc(C(=O)Nc2ccc3ccccc3c2)nn1-c1cccc(C(F)(F)F)c1 [Compound 122]  25%
9. COc1cccc(-n2nc(C(=O)Nc3cc(Cl)cc(Cl)c3)cc2C)c1 [Compound 135]  27%
10. Cc1cc(C(=O)Nc2ccccc2-n2cccc2)nn1-c1cccc(Cl)c1 [Compound 131]  29%
11. Cc1cc(C(=O)Nc2cc(Cl)cc(Cl)c2)nn1-c1cccc(F)c1 [Compound 140]  29%
12. Cc1cc(C(=O)NCc2cc(C(F)(F)F)cc(C(F)(F)F)c2)nn1-c1cccc(C(F)(F)F)c1 [Compound 120]  31%
13. Cc1cc(C(=O)Nc2cccc(-c3ccccc3)c2)nn1-c1cccc(C(F)(F)F)c1 [Compound 111]  33%
14. Cc1cc(C(=O)NCc2cc(Cl)cc(Cl)c2)nn1-c1cccc(C(F)(F)F)c1 [Compound 119]  38%
15. COc1cccc(-n2nc(C(=O)Nc3ccc(F)cc3)cc2C)c1 [Compound 132]  38%
16. COc1cccc(-n2nc(C(=O)Nc3ccccc3)cc2C)c1 [Compound 133]  39%
17. COc1cccc(-n2nc(C(=O)Nc3ccccc3-n3cccc3)cc2C)c1 [Compound 136]  42%
18. Cc1cc(C(=O)Nc2ccccc2)nn1-c1cccc(F)c1 [Compound 138]  42%
19. Cc1cc(C(=O)Nc2ccccc2-n2cccc2)nn1-c1cccc(F)c1 [Compound 141]  42%
20. Cc1cc(C(=O)Nc2ccc(F)cc2)nn1-c1cccc(F)c1 [Compound 137]  44%
21. Cc1cc(C(=O)Nc2ccccc2)nn1-c1cccc(Cl)c1 [Compound 128]  50%
22. Cc1cc(C(=O)NCc2ccc(F)cc2)nn1-c1cccc(C(F)(F)F)c1 [Compound 118]  54%
23. Cc1cc(C(=O)Nc2ccc(F)cc2)nn1-c1cccc(Cl)c1 [Compound 127]  60%
24. Cc1cc(C(=O)Nc2cccc3cnccc23)nn1-c1cccc(F)c1 [Compound 139]  79%
25. COc1cccc(-n2nc(C(=O)Nc3cccc4cnccc34)cc2C)c1 [Compound 134]  82%

same assay, conditions: 3 μM compound; % inhibition of 125I-PYY binding; read-out: % Inh NPY5r 3 μM

In order of rising inhibition at 3 µM:
1. Cc1cc(C(=O)Nc2cccc3cnccc23)nn1-c1cccc(Cl)c1 [Compound 129]  90%
2. Cc1cc(C(=O)Nc2cccc3ncccc23)nn1-c1cccc(C(F)(F)F)c1 [Compound 125]  94%
3. CNc1ccccc1NC(=O)c1cc(C)n(-c2cccc(C(F)(F)F)c2)n1 [Compound 113]  95%
4. Cc1cc(C(=O)Nc2cccc3ccccc23)nn1-c1cccc(C(F)(F)F)c1 [Compound 121]  95%

same assay, conditions: inhibition of 125I-PYY binding; values given in μM; read-out: IC50 HNPY5r

In order of falling IC50:
1. Cc1cc(C(=O)Nc2cnc3ccccc3c2)nn1-c1cccc(C(F)(F)F)c1 [Compound 108]  13 µM
2. Cc1cc(C(=O)Nc2ccc3c(c2)Cc2ccccc2-3)nn1-c1cccc(C(F)(F)F)c1 [Compound 109]  6 µM
3. Cc1cc(C(=O)Nc2cccc(C(F)(F)F)c2)nn1-c1cccc(Cl)c1 [Compound 142]  1.28 µM

same assay, conditions: inhibition of 125I-PYY binding; values in nM; read-out: IC50 HNPY5r

In order of rising IC50:
1. Cc1cc(C(=O)Nc2cccc3ncccc23)nn1-c1cccc(C(F)(F)F)c1 [Compound 125]  0.232 µM
2. Cc1cc(C(=O)Nc2cccc3cnccc23)nn1-c1cc(C(F)(F)F)ccc1Cl [Compound 145]  0.324 µM
3. CNc1ccccc1NC(=O)c1cc(C)n(-c2cccc(C(F)(F)F)c2)n1 [Compound 113]  0.343 µM
4. Cc1cc(C(=O)Nc2cccc3ccccc23)nn1-c1cccc(C(F)(F)F)c1 [Compound 121]  0.356 µM
5. Cc1cc(C(=O)Nc2cccc3cnccc23)nn1-c1cccc(Cl)c1 [Compound 129]  0.45 µM

— patent publication US6511998B2, “Pyrazole carboxamides useful for the treatment of obesity and other disorders” (priority 1999, dated 2003)
